# Test results reported in article PMC6582486, “Stapled EGFR peptide reduces inflammatory breast cancer and inhibits additional HER-driven models of cancer” (Journal of Translational Medicine, 2019).
# Like-named read-outs stand apart in the source and are kept apart here. Where a SMILES comes first, the peptide text is derived from it. Bridges are numbered along the chain shown (N, C = ends). [ ]: non-standard residue; d: D form. R8 = C=CCCCCCC[C@@](C)(N)C(=O)O; S5 = C=CCCC[C@](C)(N)C(=O)O
# Tests used:
# [1] = system: SUM149-generated tumors; test: Inflammatory breast cancer SUM149 mouse model; format: in vivo, SCID mice
# Protocol: 26 female SCID mice were injected with 0.1 mL of a cell solution containing 3.84 × 10^6 SUM149 cells resuspended in Trevigen and sterile saline at site L4. Mice were incubated for 35 days to allow tumor growth prior to injection of SAH5-EJ1, and randomized into 3 groups, N = 8 mice/group. Injections of 5 µg/g or 0.5 µg/g in 0.1 mL volumes of SAH5-EJ1 were administered via tail vein every 3 days for 31 days until the administration route changed to intraperitoneal injections through the conclusion of the study. Control injections of equal volumes of sterile water were also performed. All animals were maintained as outlined by University of Arizona Institutional Animal Care and Use Committee (IACUC) by the Experimental Mouse Shared Resource (EMSR).
# (§1) Fig. 4 SAH5-EJ1 effectively treats models of basal and inflammatory breast cancers while increasing survival. a Changes in tumor burden in breast cancer PDX mouse model TM01278 with various concentrations of intravenous SAH5-EJ1. Control represents water as a vehicle control. *p < 0.05 (Control vs 1 µg/g); **p < 0.01 (Control vs 1 µg/g and vs 10 µg/g). N = 6 for each condition. b Kaplan–Meier curve of breast PDX mouse model treated with control (blue) or either 1 or 10 µg/g SAH5-EJ1 (green and red, respectively) (red asterisks indicate time point at which mice could no longer receive injections due to site toxicity). Data shown represent mean. N = 6 for all groups. c Cell viability assay performed in SUM149 cells over 3 days comparing treatment with Sapitinib (blue) to SAH5-EJ1 (red) and SAH5-CP (grey). Solid lines represent 24 h; dashed lines represent 72 h. Data shown represent mean ± percent difference of assays performed in triplicate. d Kaplan–Meier curve of inflammatory breast cancer SUM149-injected mouse model treated with injected control (water) (blue) or either 0.5 or 5 µg/g SAH5-EJ1 (green and red, respectively). Data shown represent mean. N = 8 for all groups. e Changes in tumor burden in SUM149-generated tumors with various doses of SAH5-EJ1. Control represents water (blue). […]
# [2] = system: SUM149 inflammatory breast cancer cells; format: cell-based; conditions: SUM149, 10 µM, 3 days
# Protocol: 1000–3000 cells were plated in 96-well plates (Falcon; Corning, NY) and allowed to adhere for 24–48 h prior to therapeutic introduction. Compounds were added and incubated on cells for 3 days in serum-containing media, followed by 2 h treatment with MTT (Sigma M5655) with the resulting formazan solubilized in DMSO. Absorbance was read at 540 nm by plate reader (uQuant, Bio-Tek Instruments). P-values were calculated from a one-way ANOVA.
# as §1, with “(blue). Arrow indicates transition from intravenous (IV) SAH5-EJ1 injections to intraperitoneal (IP) on day 66. **p < 0.01 (Control vs 0.5 µg/g and vs 5 µg/g). Data shown represent mean ± standard deviation. N = 8 for all groups. f Images of mouse tumors taken on Day 116. Arrowheads indicate tumor site. Representative images selected.” for “(blue).”
# [3] = system: MDA-MB-468 breast cancer cells; format: cell-based, human; conditions: for increase in efficacy over unstapled EJ1: MDA-MB-468 cell viability, ratio of IC50
# Text: Fig. 1 Hydrocarbon stapling leads to increased EJ1 activity in comparison to HER-directed monoclonal therapies. a EJ1 sequence with PTD4 domain (underlined) corresponding to EGFR juxtamembrane domain sequence 643–663. Stabilized alpha helix (SAH) variations 1–5 beneath, with asterisks (*) indicating sites of staple. Control peptide (CP) with altered residues indicated by double underline. Stapled control (5) asterisks (*) indicate sites of staple. b Cartoon representation of EJ1 structure, with staple variation 5 highlighted. Positively charged residues indicated in blue, negatively charged residues in red. c Cartoon representation of CP structure, with staple variation highlighted. d Cell viability assay performed in MDA-MB-468 cells after 24 h comparing unstapled EJ1 versus staple variations SAH1, SAH4, and SAH5, with increasing concentrations. e Visualization of MDA-MB-468 cells untreated, treated with 10 µM EJ1, and 10 µM SAH5-EJ1 after 60 min. Scale bars represent 50 µm. f–h Cell viability assay performed in MDA-MB-468, MCF10A, or CHO cells over 3 days comparing treatment with Sapitinib (blue lines), SAH5-EJ1 (red lines), and SAH5-CP (grey lines). […] Data shown in d, f, g–i represent mean ± percent difference of assays performed in triplicate 1000–3000 cells were plated in 96-well plates (Falcon; Corning, NY) and allowed to adhere for 24–48 h prior to therapeutic introduction. Compounds were added and incubated on cells for 3 days in serum-containing media, followed by 2 h treatment with MTT (Sigma M5655) with the resulting formazan solubilized in DMSO. Absorbance was read at 540 nm by plate reader (uQuant, Bio-Tek Instruments). P-values were calculated from a one-way ANOVA.
smiles,measurement,setting,value
CC[C@H](C)[C@H](NC(=O)[C@H](Cc1c[nH]cn1)NC(=O)[C@H](CCCNC(=N)N)NC(=O)[C@H](CCCNC(=N)N)NC(=O)[C@H](CCCNC(=N)N)NC(=O)[C@H](CCSC)NC(=O)[C@H](Cc1ccccc1)NC(=O)[C@H](C)NC(=O)[C@H](CCCNC(=N)N)NC(=O)[C@H](C)NC(=O)[C@H](CCC(N)=O)NC(=O)[C@H](CCCNC(=N)N)NC(=O)[C@H](C)NC(=O)[C@H](C)NC(=O)[C@H](C)NC(=O)[C@H](CCCNC(=N)N)NC(=O)[C@H](C)NC(=O)[C@@H](N)Cc1ccc(O)cc1)C(=O)N[C@H](C(=O)N[C@@H](CCCNC(=N)N)C(=O)N[C@@H](CCCCN)C(=O)N[C@@H](CCCNC(=N)N)C(=O)N[C@]1(C)CCCCCCC=CCCC[C@@](C)(C(=O)N[C@@H](CCCNC(=N)N)C(=O)N[C@@H](CCC(=O)O)C(N)=O)NC(=O)[C@H](CCC(N)=O)NC(=O)[C@H](CC(C)C)NC(=O)[C@H](CC(C)C)NC(=O)[C@H](CCCNC(=N)N)NC(=O)[C@H](CCCNC(=N)N)NC(=O)[C@H](CC(C)C)NC1=O)C(C)C [SAH5-EJ1] (H-YARAAARQARAFMRRRHIVRKR[R8]LRRLLQ[S5]RE-NH2; staple 23-30),time of treatment until all animals showed no residual tumor burden,"[1]; 0.5 or 5 µg/g every 3 days, IV then IP",≤ 55 days
same,treated mice displaying tumor regrowth,[1]; 0.5 or 5 µg/g groups together,9/16
same,treated mice remaining at the end of the study,"[1]; 0.5 or 5 µg/g, treatment up to 203 days",more than 40%
same,cell viability,[2],zero
same,IC50,[3]; 24 h,2500 nM
same,cell death,"[3]; MDA-MB-468, 4 µM, after 1 day",complete cell death
same,increase in efficacy over unstapled EJ1,[3],more than 7 fold
same,increase in efficacy over unstapled EJ1,[3]; listed as SAH-EJ1,7.2 fold
